In the METLIN SMRT retention time set (Domingo-Almenara et al. 2019):

Assay: gradient 5% acetonitrile 3 min, to 50% in 2 min, to 85% in 15 min, held 3 min, 100 µL/min
Conditions: column: Zorbax Extend-C18 2.1 x 50 mm; eluents: water / acetonitrile, 0.1% formic acid
Summary of the method: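 Mixtures of ~100 pure standards were chromatographed on a Zorbax Extend-C18 column (2.1 × 50 mm, 1.8 μm) at 100 μL/min using water and acetonitrile, each with 0.1% formic acid. Detection used a quadrupole time-of-flight mass spectrometer in positive and negative ionization mode, and data collection spanned 3 months. Retention time was obtained from adduct peaks picked computationally and each checked manually.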

| Structure (SMILES) | RP-LC retention time [s] |
| --- | --- |
| Cc1ccn2cc(-c3ccc(NS(=O)(=O)c4cccc(Cl)c4)cc3)nc2n1 | 679 |
| CCOC(=O)c1nc(Nc2ccccc2OCC)c2c(CC)noc2n1 | 1100 |
| COc1ccc(S(=O)(=O)N2CCCC(C(N)=O)C2)cc1OC (stereo not given) | 640 |
| c1ccc(-c2nc3ccccn3c2Nc2ccc3c(c2)OCO3)cc1 | 677 |
| Cc1ccn2cc(-c3ccc(NS(=O)(=O)c4ccc5nc(C)sc5c4)cc3)nc2n1 | 641 |
| CCCc1nc2cccnc2n1C1CCN(C(=O)NCc2ccccc2)C1 (stereo not given) | 603 |
| CCCCN1C(=O)C(C)(C(=O)Nc2cc(Cl)ccc2OC)Oc2cccnc21 (stereo not given) | 1230 |
| CCN1CCN(CCNC(=O)c2ccc3c(c2)NC(=O)C2CCCCN32)CC1 (stereo not given) | 574 |
| CCc1c(C(=O)O)nnn1-c1ccc(C)cc1F | 737 |
| CN1c2cc(F)ccc2C(=O)NC12CCN(C(=O)Nc1ccccc1)CC2 | 695 |
| CC1CCN(Cc2csc(N3CCN(C(=O)CCCc4ccccc4)CC3)n2)CC1 | 715 |
| CCCN1CCC[C@@H](c2cccc(O)c2)C1 | 596 |
| COc1ccc(-c2cc(N3CCN(C(=O)NCCC(C)C)CC3)ncn2)cc1OC | 658 |
| Cc1cc2c(cc1C(=O)NCc1ccc3c(c1)CCCO3)OCCCO2 | 872 |
| CCOC(=O)c1cnc(Nc2nc(-c3ccccc3)c3ccccc3n2)nc1C | 876 |
| Cn1c(C(=O)N(Cc2ccccc2)Cc2ccccc2)cc2c(=O)n3ccccc3nc21 | 1040 |
| Cc1ccc(C)c(NC(=O)C2CCN(S(C)(=O)=O)c3ccccc3O2)c1 (stereo not given) | 943 |
| CCCOc1nc2ccccc2nc1N1CCCC(C(=O)NC2CC2)C1 (stereo not given) | 1010 |
| CCCNC(=O)C1CCN(c2ccc(SCC(=O)Nc3ccccc3C)nn2)CC1 | 636 |
| Cc1cc2c(c(=O)n(-c3ccc(F)cc3)c(=O)n2CC(=O)Nc2ccc(C(C)C)cc2)n1C | 921 |
| O=C(Cn1ncc2c(N3CCN(c4ccccn4)CC3)ncnc21)Nc1ccc(F)cc1F | 615 |
| O=C(c1ccncn1)N1C[C@@H](COCC2CC2)[C@H](c2ccccn2)C1 | 604 |
| CN(C)c1ncncc1N1CCC(C(=O)N2CCN(c3cccc(Cl)c3)CC2)CC1 | 722 |

| Structure (SMILES) | RP-LC retention time [s] |
| --- | --- |
| CN(C)c1nccnc1OC1CCN(C(=O)c2ccccc2Br)C1 (stereo not given) | 752 |
| CC(C)n1c(=O)sc2cc(S(=O)(=O)N3CCC(C(=O)Nc4cccc(C#N)c4)CC3)ccc21 | 697 |
| Cc1cc(N2CCN(C)CC2)nc(N2CCN(C(=O)c3ccc(Br)cc3)CC2)n1 | 557 |
| N#Cc1ccc(C(=O)N2CCOc3ccccc32)cc1 | 864 |
| Cn1ncc2c3ccccc3n(CC(=O)NCCN3CCOCC3)c2c1=O | 592 |
| CC1=NS(=O)(=O)N(C)C=C1C(=O)OCc1noc(-c2ccccc2C)n1 | 987 |
| O=C(NC1(c2nc(-c3ccncc3)no2)CCCCC1)c1ccccc1F | 911 |
| CC(C)NC(=O)C1CCCN(c2nc3ncn(CC(=O)NCc4ccccc4)c(=O)c3s2)C1 (stereo not given) | 672 |
| CN(CC1CCCO1)c1nc(-c2ccc([N+](=O)[O-])cc2)cs1 (stereo not given) | 1110 |
| CCc1ccc(C(=O)N2CCCn3nc(-c4cccs4)cc3C2)cc1 | 913 |
| CCOCCCNC(=O)C1CCCN(c2ccc(-c3ccc(C)c(C)c3)nn2)C1 (stereo not given) | 687 |
| CCn1cnc(S(=O)(=O)N2CCC(C(=O)Nc3cccc(-c4ccno4)c3)CC2)c1 | 724 |
| CCN1C(=O)CC[C@]2(CNC(=O)c3ccc(OC)nc3)CCC[C@@H]12 | 671 |
| Cc1sc2ccn(C)c(=O)c2c1C(=O)NC1CCN(Cc2ccccc2)CC1 | 1030 |
| O=C(Cc1cccc(F)c1)Nc1cc(-c2ccccn2)no1 | 800 |
| O=C(NC1CCCC1)c1nnc(-c2ccc(S(=O)(=O)N3CCCC3)cc2)o1 | 855 |
| CC(C)(C)c1noc(-c2cccnc2-n2cnc(C(=O)NC3CCCC3)c2)n1 | 968 |
| COc1ccc(-c2noc(C3CCCN3C(=O)C3CCCC3)n2)cc1 (stereo not given) | 978 |
| COc1ccc(NC2=NS(=O)(=O)C(c3ccc(F)cc3)=C2C)c(OC)c1 | 929 |
| O=C(NCc1cnccn1)c1ccnc(N2CCNC(c3ccccc3)C2)c1 (stereo not given) | 581 |
| Cc1csc(-c2cc(S(=O)(=O)N3CCOCC3)c(C)n2C)n1 | 824 |
| COc1ccc(NS(=O)(=O)c2cc(-c3nc(C(C)(C)C)cs3)cs2)cc1Cl | 1220 |
